The values that follow are results of earlier work, collected in patent publication US10179139B2, “Pharmaceutical composition” (CIPLA Limited, priority 2010, dated 2019).

The structures appear in SMILES notation.

The conditions of the data set: in vivo.

`C[N+]1(C)[C@@H]2C[C@@H](OC(=O)C(O)(c3cccs3)c3cccs3)C[C@H]1[C@@H]1O[C@@H]12` [Tiotropium, (1α, 2β, 4β, 5α, 7β)-7-[(Hydroxydi-2-thienylacetyl)oxy]-9,9-dimethyl-3-oxa-9-azoniatricyclo[3.3.1.0^2,4]nonane bromide monohydrate]: the duration of action entry is reported as “up to 32 hours”.
In the case of `CCc1cc2c(cc1CC)CC(NC[C@H](O)c1ccc(O)c3[nH]c(=O)ccc13)C2` [Indacaterol, (R)-5-[2-[(5,6-Diethyl-2,3-dihydro-1H-inden-2-yl)amino]-1-hydroxyethyl]-8-hydroxyquinolin-2(1H)-one], the duration of action entry was “more than 24 hrs”.
